The text below walks through data of US20190030009A1, “COMPOUNDS AND COMPOSITIONS FOR THE TREATMENT OF CRYPTOSPORIDIOSIS” (Novartis AG, priority 2016, published 2019).

For one data set, the system named is Cryptosporidium parvum. Description: Cytopathic effect (CPE) based assay, C. parvum infected HCT-8 cells. The following applies: HCT-8 host cell viability (CellTiter-Glo), 48 hours treatment, read-out: Cp CPE EC50. As for the experimental part:
Human ileocecal colorectal adenocarcinoma cells (HCT-8 [HRT-18] ATCC, CCL-34) were maintained in T-175 flasks (Corning, 431080) in complete growth medium (RPMI-1640 medium (Gibco, 11875) supplemented with 10% heat-inactivated horse serum (Gibco, 26050), 1×MEM non-essential amino acids (Gibco, 11140), 10 mM HEPES (Gibco, 15630), 100 units/mL penicillin, and 100 units/mL streptomycin) at 37° C. and 5% CO2 in a humidified incubator. Cultures were passaged twice weekly using 10 mL of 1×Phosphate-Buffered Saline (PBS) without Ca^2+ and Mg^2+ (Gibco, 20012) for washing and 3-5 mL per T-175 flask of TrypLE Express Enzyme (Gibco, 12604) for dissociation of adherent cells.
Cryptosporidium parvum oocysts purchased from the Sterling Laboratory, University of Arizona (Iowa isolate) were purified from infected calf feces using discontinuous sucrose and cesium chloride centrifugation gradients and stored in PBS solution containing 0.01% Tween 20, 100 units/mL penicillin and 100 units/mL gentamicin.
Excystation and infection protocols were developed following established methods with some modifications (Gut & Nelson, 1999, Upton et aL, 1995, Bessoff et aL, 2013). Briefly, oocysts were primed in 1 mL of 10 mM hydrochloric acid in 1× Hank's Balanced Salt Solution (HBSS) (Gibco, 14025) for 10 minutes with agitation at 1000 rpm, 37° C. on an Eppendorf thermomixer, then washed twice with 1 mL of room temperature non-acidic 1× HBSS by centrifugation at 13,000 rpm for 3 minutes at 25° C. Primed oocysts were further excysted at a concentration of 1×10^6 oocysts/μL in parasite infection medium consisting of a pre-warmed and pre-gassed 1:1 formulation of Leibovitz's L-15 medium (Gibco, 11415) and UltraCULTURE medium (Lonza, 12-725F) supplemented with 2 mM sodium taurocholate (Sigma, 86339-1), 10% heat-inactivated horse serum, and 200 μM L-ascorbic acid (Sigma, 95210) at 25° C. for 10 minutes. HCT-8 monolayer cells were infected with excysted cryptosporidium at a specified multiplicity of infection (MOI). All dilutions for subsequent assays were performed in parasite infection medium without sodium taurocholate. Pre-excysted oocysts were enumerated microscopically using a C-Chip disposable hemocytometer (NanoEnTek, DHC-N01).
Compound powders were dissolved in neat DMSO (Fisher, D4121) to 10 mM and stored at 4° C. prior to dilution into source plates. Dilutions were carried out using a Microlab STAR liquid handler (Hamilton) to obtain compound source plates containing the ten-point or eight-point three fold dilutions starting from 10 mM in duplicates. Source plates were stored at 4° C. prior to spotting into assay plates. Before administration, all compound source plates were equilibrated to room temperature. A specified volume of compounds from source plate were spotted to assay plate using an Echo Acoustic liquid handler (LABCYTE, 550) so that the final DMSO concentration was less than 0.5%. Each assay plate a specified number of DMSO-treated negative control wells and a well-studied potent active compound at 100 nM as positive control. As a quality control, all positive and negative-control wells were used to calculate a Z′-value and signal to noise ratio (S:N) for each plate.
Cryptosporidium spp are obligate-intracellular parasites that infect intestinal epithelial cells and the host cell is killed upon parasite egress. […] The loss of epithelial cells is due to both rapid parasite invasion/multiplication/egress and also pro-inflammatory immune response (Adams et al., 1994, Griffiths et al., 1994). We have observed a consistent cytopathic effect (CPE) in HCT-8 cells with C. spp infection the loss of viability of the host cells using CellTiter-Glo reagent.
Confluent HCT-8 cells in T-175 flasks were directly infected with excysted oocysts at an MOI (host to parasite) of 1:2 for C. parvum and 1:4 for C. hominis. The number of host-cells is determined using a NucleoCounter (Chemometec, NC-100) in a control flask. […]
(In general: Damage to the host cells serves as the signal in cytopathic effect assays.)

Data set [1] in a line: Cytotoxicity against HepG2. To be noted: human, HepG2 cells (ATCC HB-8065), 5 days exposure. It counts as cell-based. Here is the method: Cytotoxicity against HepG2 (ATCC# HB-8065), a human liver cancer cell line, was determined as previously described earlier (Manjunatha et al., 2015). Briefly, cells were seeded at a density of 10^5 cells per well, incubated at 37° C. for 24 h and exposed to two-fold serially-diluted compounds for 5 days. Cell viability was monitored using the Cell Proliferation Kit II (Invitrogen). The cytotoxicity values of selected compounds are reported in the fifth column [HepG2 CC50 (μM)] of Table II.

For the compound `CNC(=O)c1ccc(-c2cnn3ccc(C(=O)N(C)c4ccc(Cl)cc4)cc23)cn1` [Example 109], in the data set with Cryptosporidium parvum, the EC50 (as a rule, the concentration needed to bring the measured effect to its halfway point) was 0.129 µM. Also, the CC50 – broadly, the concentration that lowers cell viability or growth by half – at 5 days in data set [1] is 16.9 µM.
For `CNC(=O)c1ccc(-c2cnn3ccc(C(=O)N(c4ccc(C(F)(F)F)cn4)C4CC4)cc23)cc1` [Example 132] the same measures were 0.089 µM and 17.3 µM.
For `CN(C(=O)c1ccn2ncc(-c3ccc(C(=O)NCCO)cc3)c2c1)c1ccc(C#N)cn1` [Example 102] the same measures were 0.399 µM and 38.5 µM.
For `CCN(C(=O)c1ccn2ncc(-c3ccc(C(=O)NC)cc3)c2c1)c1ccc(F)cn1` [Example 95] the same measures were 0.63 µM and 13 µM.
Regarding `CNC(=O)c1ccc(-c2cnn3ccc(C(=O)N(c4ccc(C#N)cc4)C4CC4)cc23)cc1` [Example 118], in the data set on Cryptosporidium parvum, the EC50 worked out at 0.026 µM. Also, the CC50 at 5 days in data set [1] came out at 5.9 µM.
For `CNC(=O)c1ccc(-c2cnn3ccc(C(=O)N(c4ccc(C)cn4)C4CC4)cc23)cc1` [Example 136] the same measures were 0.43 µM and 6.32 µM.
As to `CNC(=O)c1ccc(-c2cnn3ccc(C(=O)N(c4ccc(C#N)cn4)C4CCC4)cc23)cn1` [Example 144], in the data set with Cryptosporidium parvum, the EC50 stood at 1.79 µM. Moreover, the CC50 at 5 days in data set [1] came out at 7.69 µM.
On to `CNC(=O)c1ccc(-c2cnn3ccc(C(=O)N(C)c4ccc(OCCN)cn4)cc23)cc1` [Example 111], for which the EC50 in the data set on Cryptosporidium parvum was above 20 µM. This compound gave a CC50 at 5 days in data set [1] above 50 µM.
Take `CNCCNC(=O)c1ccc(-c2cnn3ccc(C(=O)N(C)c4ccc(C#N)cn4)cc23)cc1` [Example 114]: in the data set with Cryptosporidium parvum, the EC50 turned out to be 9.13 µM. Further, the CC50 at 5 days in data set [1] amounted to 5.52 µM.
In the case of `N#Cc1ccc(N(C(=O)c2ccn3ncc(-c4ccc(C(N)=O)nc4)c3c2)C2CC2)cc1` [Example 138], the EC50 with Cryptosporidium parvum was 0.49 µM. In data set [1], this compound yielded a CC50 at 5 days of 8.1 µM.
For `CNC(=O)c1ccc(-c2cnn3ccc(C(=O)N(C)c4ccc(Cl)cc4)cc23)cc1` [Example 99] the same measures were 0.018 µM and 6.51 µM.
`NC(=O)c1ccc(-c2cnn3ccc(C(=O)N4CCOc5cc(F)ccc54)cc23)cc1` [Example 71]: in the data set with Cryptosporidium parvum, the EC50 was 0.571 µM. Also, half-maximal cytotoxicity in data set [1] (CC50 at 5 days) was put at 1.82 µM.
Turning to `CNC(=O)c1ccc(-c2cnn3ccc(C(=O)N(C)c4ccc(F)cc4)cc23)cc1` [Example 64], the EC50 with Cryptosporidium parvum stood at 0.143 µM. The compound further returned a CC50 at 5 days in data set [1] of 4.84 µM.
For `N#Cc1ccc(N(CCO)C(=O)c2ccn3ncc(-c4ccc(C(N)=O)cc4)c3c2)cc1` [Example 105] the same measures were above 20 µM and above 50 µM.
In the case of `N#Cc1ccc(N(C2CC2)S(=O)(=O)c2ccn3ncc(-c4ccc(C(N)=O)cc4)c3c2)nc1` [Example 165], in the data set on Cryptosporidium parvum, the EC50 turned out to be 0.607 µM. In data set [1], this compound had a CC50 at 5 days of 6.37 µM.
For `CN(C(=O)c1ccn2ncc(-c3ccc(C(N)=O)cc3)c2c1)c1ccc(Cl)cc1` [Example 100] the same measures were 0.021 µM and 13.3 µM.
For `CN(C(=O)c1ccn2ncc(-c3ccc(N)nc3)c2c1)c1ccc(C#N)cc1` [Example 41] the same measures were 0.097 µM and 24.1 µM.
For `CN(C(=O)c1ccn2ncc(-c3ccnc(N)c3)c2c1)c1ccc(C#N)cn1` [Example 108] the same measures were 4.94 µM and 14.2 µM.
In the case of `CN(C(=O)c1ccn2ncc(-c3ccc(C(N)=O)cc3)c2c1)C1CCC(C#N)CC1` (centres unmarked) [Example 82], the EC50 in the data set with Cryptosporidium parvum is above 20 µM. Moreover, in data set [1], the CC50 at 5 days is above 50 µM.
For `CNC(=O)c1ccc(-c2cnn3ccc(C(=O)N(c4ccc(C(F)(F)F)cn4)C4CCC4)cc23)cn1` [Example 161] the same measures were 0.775 µM and 1.22 µM.
For `CNC(=O)c1ccc(-c2cnn3ccc(C(=O)N(c4ccc(Cl)cc4)C4CC4)cc23)cc1` [Example 116] the same measures were 0.007 µM and 3.01 µM.
For `CNC(=O)c1ccc(-c2cnn3ccc(C(=O)N(C)c4ccc(C#N)cn4)cc23)cc1` [Example 75] the same measures were 0.066 µM and 19.7 µM.
Take `CNC(=O)c1ccc(-c2cnn3ccc(S(=O)(=O)N(C)c4ccc(C#N)cn4)cc23)cc1` [Example 163]: the EC50 with Cryptosporidium parvum is 0.197 µM. For the same compound, in data set [1], the CC50 at 5 days was found to be 8.48 µM.
For `CNC(=O)c1ccc(-c2cnn3ccc(C(=O)N(c4ccc(C(N)=O)cn4)C4CC4)cc23)cc1` [Example 129] the same measures were above 20 µM and above 50 µM.
For `CN(C(=O)c1ccn2ncc(-c3cnc(N)nc3)c2c1)c1ccc(C#N)cc1` [Example 83] the same measures were 0.487 µM and above 50 µM.
For `CNC(=O)c1ccc(-c2cnn3ccc(C(=O)N(c4ccc(C#N)cn4)C4CC4)cc23)nc1` [Example 133] the same measures were 2.18 µM and 20.9 µM.
`CNC(=O)c1ccc(-c2cnn3ccc(C(=O)N(c4ccc(Cl)cc4)C4CC4)cc23)cn1` [Example 143]: the EC50 with Cryptosporidium parvum amounted to 0.079 µM. Also, it took 17.5 µM to reach half-maximal cytotoxicity in data set [1] (CC50 at 5 days).
For `CNC(=O)c1ccc(-c2cnn3ccc(C(=O)N(c4ccc(F)cn4)C(C)C)cc23)cc1` [Example 151] the same measures were 2.31 µM and 29.2 µM.
For `CN(C(=O)c1ccn2ncc(-c3cnc(N)c(C#N)c3)c2c1)c1ccc(C#N)cn1` [Example 85], in the data set on Cryptosporidium parvum, the EC50 turned out to be 0.639 µM. In data set [1], this compound had a CC50 at 5 days of 30.4 µM.
For `Cc1ccc(N(C)C(C)c2ccn3ncc(-c4ccc(C(N)=O)cc4)c3c2)nc1` (centres unmarked) [Example 65] the same measures were 5.12 µM and 2.28 µM.
For `N#Cc1ccc(N(C(=O)c2ccn3ncc(-c4ccc(C(N)=O)cc4)c3c2)C2CC2)cc1` [Example 134] the same measures were 0.042 µM and 7.24 µM.
